SMILES strings stand for the structures. Bridge positions count the residues as written; N and C are the ends. Peptide text beside a SMILES is read from it. Where only a bound is given, the exact number is not on record here.

The IC50 is the concentration at which inhibition is half-maximal. The low end stands for greater potency, the high end for weaker potency.

The target of this assay is T1, IL17-RE-IL-17C (Homo sapiens, UniProt Q8NFR9+Q9P0M4).
T1 sequence (Q9P0M4 whole entry): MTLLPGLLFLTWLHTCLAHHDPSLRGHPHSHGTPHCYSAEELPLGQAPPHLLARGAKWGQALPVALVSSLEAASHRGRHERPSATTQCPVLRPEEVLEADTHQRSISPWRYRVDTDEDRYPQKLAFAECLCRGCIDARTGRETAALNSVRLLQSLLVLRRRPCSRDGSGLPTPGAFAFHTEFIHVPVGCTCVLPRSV
T1 sequence (Q8NFR9 whole entry): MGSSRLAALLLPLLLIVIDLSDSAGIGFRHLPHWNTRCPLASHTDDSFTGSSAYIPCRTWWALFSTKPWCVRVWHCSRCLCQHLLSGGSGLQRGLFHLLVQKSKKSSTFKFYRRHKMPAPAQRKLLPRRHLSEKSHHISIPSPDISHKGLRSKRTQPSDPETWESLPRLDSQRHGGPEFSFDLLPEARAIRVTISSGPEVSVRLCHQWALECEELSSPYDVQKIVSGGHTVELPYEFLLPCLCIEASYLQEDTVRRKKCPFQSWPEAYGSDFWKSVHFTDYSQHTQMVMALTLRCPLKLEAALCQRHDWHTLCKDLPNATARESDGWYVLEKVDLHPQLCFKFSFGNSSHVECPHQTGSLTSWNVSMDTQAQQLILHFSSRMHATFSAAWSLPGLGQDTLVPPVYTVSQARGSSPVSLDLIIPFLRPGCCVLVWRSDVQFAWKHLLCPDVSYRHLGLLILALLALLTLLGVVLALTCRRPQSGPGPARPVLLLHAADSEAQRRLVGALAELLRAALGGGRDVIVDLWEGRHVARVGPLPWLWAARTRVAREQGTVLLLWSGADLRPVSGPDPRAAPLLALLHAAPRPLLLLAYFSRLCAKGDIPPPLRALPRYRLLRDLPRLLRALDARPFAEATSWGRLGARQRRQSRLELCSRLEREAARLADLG
The assay is described as follows: Inhibition of interleukin-17RE/biotinylated IL-17C protein-protein interaction (unknown origin) incubated for 1 hrs by competitive ELISA. The class given is protein-complex assay. A general note: ELISA stands for enzyme-linked immunosorbent assay.
`CC[C@H](C)[C@@H]1NC(=O)[C@H](Cc2c[nH]cn2)NC(=O)[C@H](Cc2ccc(O)cc2)NC(=O)CSC[C@@H](C(=O)NCC(N)=O)NC(=O)CNC(=O)[C@H](CC(C)C)NC(=O)[C@H](CC(=O)O)NC(=O)CNC(=O)[C@H](Cc2ccc(O)cc2)NC(=O)[C@H](CC(C)C)NC(=O)[C@H](CO)NC(=O)[C@H](CCCNC(=N)N)NC(=O)[C@H](Cc2ccc(O)cc2)NC(=O)[C@H](Cc2ccc(O)cc2)NC1=O` ({CH2CO}-YHIYYRSLYGDLGCG-NH2; thioether N-14) gave a concentration for half-maximal inhibition (IC50) of 0.0017 µM.

As to `CC(C)C[C@@H]1NC(=O)[C@H](CC(=O)O)NC(=O)CNC(=O)[C@H](Cc2ccc(O)cc2)NC(=O)[C@H](CC(C)C)NC(=O)[C@H](CO)NC(=O)[C@H](CCCNC(=N)N)NC(=O)[C@H](Cc2ccc(O)cc2)NC(=O)[C@H](CC(N)=O)NC(=O)[C@H](Cc2c[nH]cn2)NC(=O)[C@H](Cc2c[nH]cn2)NC(=O)[C@H](Cc2ccc(O)cc2)NC(=O)CSC[C@@H](C(=O)NCC(N)=O)NC(=O)CNC1=O` ({CH2CO}-YHHNYRSLYGDLGCG-NH2; thioether N-14), the IC50 is over 30 µM.

For `CC(C)C[C@@H]1NC(=O)[C@H](CC(=O)O)NC(=O)CNC(=O)[C@H](Cc2ccc(O)cc2)NC(=O)[C@H](CC(C)C)NC(=O)[C@H](CO)NC(=O)[C@H](CCCNC(=N)N)NC(=O)[C@H](Cc2c[nH]cn2)NC(=O)[C@H](Cc2ccc(O)cc2)NC(=O)[C@H](Cc2c[nH]cn2)NC(=O)[C@H](Cc2c[nH]cn2)NC(=O)[C@H](Cc2ccc(O)cc2)NC(=O)CSC[C@@H](C(=O)NCC(N)=O)NC(=O)CNC1=O` ({CH2CO}-YHHYHRSLYGDLGCG-NH2; thioether N-14), the concentration for half-maximal inhibition (IC50) is over 30 µM.

In the case of `CC[C@H](C)[C@@H]1NC(=O)[C@H](CCCNC(=N)N)NC(=O)[C@H](Cc2ccc(O)cc2)NC(=O)[C@H](Cc2ccc(O)cc2)NC(=O)[C@H](CCC(N)=O)NC(=O)[C@H](Cc2c[nH]cn2)NC(=O)[C@H](Cc2ccc(O)cc2)NC(=O)CSC[C@@H](C(=O)NCC(N)=O)NC(=O)CNC(=O)[C@H](CC(C)C)NC(=O)[C@H](CCC(=O)O)NC(=O)CNC(=O)[C@H](Cc2ccc(O)cc2)NC(=O)[C@H](CC(C)C)NC1=O` ({CH2CO}-YHQYYRILYGELGCG-NH2; thioether N-14), the IC50 turned out to be 0.015 µM.
